Assay results as given in patent US20250084074A1, “SUBSTITUTED HETEROCYCLES AS HSET INHIBITORS” (MERCK PATENT GMBH, priority 2022, published 2025).
Structures can show the parent of a compound that is named as a salt.

Biological target: HSET full length protein (Homo sapiens (Human), UniProt Q9BW19)
Experiment: HSET ADP-Glo Assay S - 3 μM ATP
Assay type: biochemical
Conditions: 5 nM HSET, 70 μg/mL microtubule, 80 min at rt, read-out: COMBINED HSET ADP GLO IC50
Procedure, shortened: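 ADP-Glo luminescence read-out: ATPase reaction at 3 μM ATP, 80 min at room temperature, after a 10 min compound preincubation. Enzyme was full-length human HSET at 5 nM, stimulated by 70 μg/mL paclitaxel-stabilised bovine microtubules in HEPES pH 6.8 buffer with MgCl2, EGTA, Triton X-100 and DTT.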

HSET full length protein, sequence (Q9BW19 whole entry): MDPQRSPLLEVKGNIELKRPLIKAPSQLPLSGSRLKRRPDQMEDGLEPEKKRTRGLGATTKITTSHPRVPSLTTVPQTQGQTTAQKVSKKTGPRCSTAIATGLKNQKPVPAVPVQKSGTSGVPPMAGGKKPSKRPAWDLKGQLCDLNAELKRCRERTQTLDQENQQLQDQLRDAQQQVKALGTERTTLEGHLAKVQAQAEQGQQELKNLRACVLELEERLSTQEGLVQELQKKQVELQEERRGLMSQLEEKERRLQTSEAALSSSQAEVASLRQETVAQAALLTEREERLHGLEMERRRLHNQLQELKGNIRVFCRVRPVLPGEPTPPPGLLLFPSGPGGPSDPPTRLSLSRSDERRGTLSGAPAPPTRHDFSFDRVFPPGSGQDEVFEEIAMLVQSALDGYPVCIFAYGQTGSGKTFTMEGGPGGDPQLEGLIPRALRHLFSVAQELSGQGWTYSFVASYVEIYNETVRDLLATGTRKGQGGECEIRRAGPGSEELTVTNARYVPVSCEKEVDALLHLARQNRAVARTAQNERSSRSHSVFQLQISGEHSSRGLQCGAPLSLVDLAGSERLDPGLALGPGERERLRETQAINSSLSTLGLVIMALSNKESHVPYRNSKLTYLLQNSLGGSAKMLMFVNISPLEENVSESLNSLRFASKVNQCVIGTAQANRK

IC50 [nM] | Structure (SMILES)
57 | CCCc1nc(-c2cc(NC(=O)[C@@H](O)CNc3nccc4ccc(-c5noc(C)n5)cc34)nn2C)no1 [Example 182, (S)-2-hydroxy-3-((7-(5-methyl-1,2,4-oxadiazol-3-yl)isoquinolin-1-yl)amino)-N-(1-methyl-5-(5-propyl-1,2,4-oxadiazol-3-yl)-1 H-pyrazol-3-yl)propenamide]
17300 | CCCc1nc(-c2cc(NC(=O)[C@@H](O)CNc3nccc4ccc(C)cc34)nn2C)no1 [Example 183, (S)-2-hydroxy-N-(1-methyl-5-(5-propyl-1,2,4-oxadiazol-3-yl)-1 H-pyrazol-3-yl)-3-((7-methylisoquinolin-1-yl)amino)propanamide]
34 | Cc1ccc2ccnc(NC[C@@H](O)C(=O)Nc3nc(C)c(C(=O)OC(C)(C)C)s3)c2c1 [Example 184, tert-Butyl (R)-2-(2-hydroxy-3-((7-methylisoquinolin-1-yl)amino)propanamido)-4-methylthiazole-5-carboxylate]
20 | Cc1ccc2ccnc(NC[C@H](O)C(=O)Nc3nc(C)c(C(=O)OC(C)(C)C)s3)c2c1 [Example 185, tert-Butyl (S)-2-(2-hydroxy-3-((7-methylisoquinolin-1-yl)amino)propanamido)-4-methylthiazole-5-carboxylate]
30 | CCCOC(=O)c1sc(NC(=O)[C@H](CNc2nccc3ccc(-c4noc(C)n4)cc23)OC)nc1C [Example 186, Propyl (S)-2-(2-methoxy-3-((7-(5-methyl-1,2,4-oxadiazol-3-yl)isoquinolin-1-yl)amino)propanamido)-4-methylthiazole-5-carboxylate]
52 | Cc1nc(-c2ccc3ccnc(NC[C@H](O)C(=O)Nc4nc(C)c(C(C)(C)C)s4)c3c2)no1 [Example 187, (S)-N-(5-(tert-butyl)-4-methylthiazol-2-yl)-2-hydroxy-3-((7-(5-methyl-1,2,4-oxadiazol-3-yl)isoquinolin-1-yl)amino)propenamide]
270 | CCCCCc1cc(NC(=O)[C@@H](O)CNc2nccc3ccc(-c4noc(C)n4)cc23)nn1C [Example 188, (S)-2-hydroxy-3-((7-(5-methyl-1,2,4-oxadiazol-3-yl)isoquinolin-1-yl)amino)-N-(1-methyl-5-pentyl-1 H-pyrazol-3-yl)propenamide]
616 | CCCCCc1cc(NC(=O)[C@H](O)CNc2nccc3ccc(-c4noc(C)n4)cc23)nn1C [Example 189, (R)-2-hydroxy-3-((7-(5-methyl-1,2,4-oxadiazol-3-yl)isoquinolin-1-yl)amino)-N-(1-methyl-5-pentyl-1 H-pyrazol-3-yl)propenamide]

Second part, the molecule before the results:

Structure (SMILES) | IC50 [nM]
CNCCC[C@@H](CC(=O)Nc1nc(C)c(C(=O)OC(C)(C)C)s1)Nc1nccc2ccc(-c3noc(C)n3)cc12 [Example 168, tert-Butyl (S)-4-methyl-2-(3-((7-(5-methyl-1,2,4-oxadiazol-3-yl)isoquinolin-1-yl)amino)-6-(methylamino)hexanamido)thiazole-5-carboxylate] | 3
CNCCC[C@@H](CC(=O)Nc1nc(C)c(C(=O)O)s1)Nc1nccc2ccc(-c3noc(C)n3)cc12 [Example 169, (S)-4-methyl-2-(3-((7-(5-methyl-1,2,4-oxadiazol-3-yl)isoquinolin-1-yl)amino)-6-(methylamino)hexanamido)thiazole-5-carboxylic acid] | 265
CNCCC[C@@H](CC(=O)Nc1nc(C)c(C(=O)OC2CCC(F)(F)C2)s1)Nc1nccc2ccc(-c3noc(C)n3)cc12 (stereo partly drawn) [Example 170, 3,3-Difluorocyclopentyl 4-methyl-2-((S)-3-((7-(5-methyl-1,2,4-oxadiazol-3-yl)isoquinolin-1-yl)amino)-6-(methylamino)hexanamido)thiazole-5-carboxylate] | 4
CNCCC[C@@H](CC(=O)Nc1nc(C)c(C(C)(C)C)s1)Nc1nccc2ccc(-c3noc(C)n3)cc12 [Example 171, (S)-N-(5-(tert-butyl)-4-methylthiazol-2-yl)-3-((7-(5-methyl-1,2,4-oxadiazol-3-yl)isoquinolin-1-yl)amino)-6-(methylamino)hexanamide] | 149
CCCOC(=O)c1sc(NC(=O)C[C@H](CCCNC)Nc2nccc3ccc(-c4noc(C)n4)cc23)nc1C [Example 172, Propyl (S)-4-methyl-2-(3-((7-(5-methyl-1,2,4-oxadiazol-3-yl)isoquinolin-1-yl)amino)-6-(methylamino)hexanamido)thiazole-5-carboxylate] | 6
CCCOC(=O)c1sc(NC(=O)[C@H](N)CNC(=O)c2cccc(-c3noc(C)n3)c2)nc1C [Example 173, Propyl (R)-2-(2-amino-3-(3-(5-methyl-1,2,4-oxadiazol-3-yl)benzamido)propanamido)-4-methylthiazole-5-carboxylate formate] | 63
CCCOC(=O)c1sc(NC(=O)[C@@H](N)CNc2nccc3ccc(-c4noc(C)n4)cc23)nc1C [Example 174, Propyl (S)-2-(2-amino-3-((7-(5-methyl-1,2,4-oxadiazol-3-yl)isoquinolin-1-yl)amino)propanamido)-4-methylthiazole-5-carboxylate] | 8
CCCOC(=O)c1sc(NC(=O)[C@H](CNC(=O)c2cccc(-c3noc(C)n3)c2)N(C)C)nc1C [Example 175, Propyl (S)-2-(2-(dimethylamino)-3-(3-(5-methyl-1,2,4-oxadiazol-3-yl)benzamido)propanamido)-4-methylthiazole-5-carboxylate formate] | 335
CCCOC(=O)c1sc(NC(=O)[C@H](O)CNc2nccc3ccc(-c4noc(C)n4)cc23)nc1C [Example 176, Propyl (R)-2-(2-hydroxy-3-((7-(5-methyl-1,2,4-oxadiazol-3-yl)isoquinolin-1-yl)amino)propanamido)-4-methylthiazole-5-carboxylate] | 1
Cc1nc(-c2ccc3ccnc(NC[C@@H](O)C(=O)Nc4nc(C)c(C(=O)OC(C)(C)C)s4)c3c2)no1 [Example 177, tert-Butyl (R)-2-(2-hydroxy-3-((7-(5-methyl-1,2,4-oxadiazol-3-yl)isoquinolin-1-yl)amino)propanamido)-4-methylthiazole-5-carboxylate] | 2
CCCOC(=O)c1sc(NC(=O)[C@@H](O)CNc2nccc3ccc(-c4noc(C)n4)cc23)nc1C [Example 178, Propyl (S)-2-(2-hydroxy-3-((7-(5-methyl-1,2,4-oxadiazol-3-yl)isoquinolin-1-yl)amino)propanamido)-4-methylthiazole-5-carboxylate] | 2
Cc1nc(-c2ccc3ccnc(NC[C@H](O)C(=O)Nc4nc(C)c(CC(C)C)s4)c3c2)no1 [Example 179, (S)-2-hydroxy-N-(5-isobutyl-4-methylthiazol-2-yl)-3-((7-(5-methyl-1,2,4-oxadiazol-3-yl)isoquinolin-1-yl)amino)propenamide] | 43
Cc1nc(-c2ccc3ccnc(NC[C@H](O)C(=O)Nc4nc(C)c(C(=O)OC(C)(C)C)s4)c3c2)no1 [Example 180, tert-Butyl (S)-2-(2-hydroxy-3-((7-(5-methyl-1,2,4-oxadiazol-3-yl)isoquinolin-1-yl)amino)propanamido)-4-methylthiazole-5-carboxylate] | 2
Cc1nc(NC(=O)[C@@H](O)CNc2nccc3ccc(-c4cnn(C)c4)cc23)sc1C(=O)OC(C)(C)C [Example 181, tert-Butyl (S)-2-(2-hydroxy-3-((7-(1-methyl-1 H-pyrazol-4-yl)isoquinolin-1-yl)amino)propanamido)-4-methylthiazole-5-carboxylate] | 14
